{"source": "patent US9790188B2", "about": "“Benzimidazole derivatives and uses thereof” (Whitehead Institute for Biomedical Research, priority 2013, dated 2017)", "key": {"WT yeast [1]": {"system": "WT yeast", "assay": "Viable cells recovered after prolonged treatment at growth inhibitory concentrations"}, "[2]": {"system": "dopaminergic (DA) neurons", "assay": "C. elegans model of α-syn toxicity", "format": "in vivo", "settings": "nematodes expressing α-syn and GFP in DA neurons", "protocol": "Drug treatments of the C. elegans α-syn model were performed as previously described (6). Briefly, age-synchronized worms were obtained by treating gravid adults with 2% sodium hyopchlorite and 0.5M NaOH to isolate embryos (36). Variable concentrations of ABI1 or 0.2% DMSO was applied to embryos suspended in M9 buffer (22 mM KH2PO4, […], 85 mM NaCl, 1 mM MgSO4) (time 0), and incubated at 25 C for 24 hours to obtain a synchronized L1 population. Worms were washed three times in distilled water and one additional rinse in M9 buffer. The synchronized L1 worms were plated on regular nematode growth media (NGM) plates seeded with 100 uL of Eschericia coli (OP50). Worms were then transferred every other day to new plates to insure food abundance and eliminate progeny contamination. Worms were then analyzed seven days post-hatching. Analyses were carried out according to the criteria previously described (37). In each case, ˜30-40 animals were scored for the percent of WT animals. Experiments were completed in triplicate and averages calculated. A one-way ANOVA and Tukey's test was used to determine significance."}, "Bap2": {"system": "Bap2", "assay": "Western blot of proteinA-tagged Bap2", "format": "cell-based, yeast", "settings": "Rsp5-dependent"}, "reactive oxygen species": {"system": "reactive oxygen species", "assay": "ROS detection (CM-H2DCFDA, flow cytometry) in α-syn yeast", "format": "cell-based", "settings": "10 μM, HiTox strain", "protocol": "The generation of reactive oxygen species (ROS) detected from yeast expressing untagged α-syn using the ROS sensing dye, CM-H2DCFDA (Invitrogen), as previously described (9). Briefly, log phase raffinose cultures of α-syn (non-GFP tagged) were induced with galactose with or without ABI1 for 6 hours. At this time, the dye was added for an additional 30 minutes. Cells were then analyzed using an EasyCyte flow cytometer (Guava Technologies)."}, "WT yeast [3]": {"system": "WT yeast", "assay": "Growth inhibition of wild-type yeast (dose-response)", "format": "cell-based", "settings": "at concentrations higher than those that rescue α-syn toxicity", "protocol": "Source plates were assembled in 96 well plates using multichannel pipettes to dilute rows in 1.6-fold serial dilutions of CSMGal. […] For α-syn, the final starting OD600 was 0.02. Drug concentration ranges varied depending on efficacy, growth inhibition, and solubility in media. A Tecan EvoFreedom liquid handling robot was then used to transfer culture from 96 to 384 well format with each well being represented four times. Final well volume was 35 μL. Plates were then incubated in humidified containers at 30° C. for either 24 or 40 hours. Plates were then read with a Tecan Saphire plate reader at OD600.\nRaw OD600 values were transformed to “Relative Growth” in WT cells or “% Maximum Rescue” in α-syn experiments. In WT cells, the well background was subtracted and all values were then normalized to 100% for the untreated condition. In α-syn rescue experiments, the well background was subtracted and the maximum rescue in the particular experiment was normalized to 100%."}, "Cpy": {"system": "Cpy", "assay": "CPY western blot, ER-to-Golgi trafficking in α-syn yeast", "format": "cell-based", "settings": "α-syn-expressing yeast", "protocol": "CPY western blots were performed using culture conditions as described above. An anti-Cpy antibody (Invitrogen, A6428) was used at 1:5,000. Post-ER:ER ratios were quantitated using an IRDye800 secondary antibody (Li-Cor Odyssey, Rockland Immunochemicals) and scanned with the Li-Cor Odyssey imaging system. Significance was determined using a one-way ANOVA and Tukey's test of significance."}, "Rsp5p": {"target": "Rsp5p (Saccharomyces cerevisiae, UniProt P39940)", "sequence (P39940 whole entry)": "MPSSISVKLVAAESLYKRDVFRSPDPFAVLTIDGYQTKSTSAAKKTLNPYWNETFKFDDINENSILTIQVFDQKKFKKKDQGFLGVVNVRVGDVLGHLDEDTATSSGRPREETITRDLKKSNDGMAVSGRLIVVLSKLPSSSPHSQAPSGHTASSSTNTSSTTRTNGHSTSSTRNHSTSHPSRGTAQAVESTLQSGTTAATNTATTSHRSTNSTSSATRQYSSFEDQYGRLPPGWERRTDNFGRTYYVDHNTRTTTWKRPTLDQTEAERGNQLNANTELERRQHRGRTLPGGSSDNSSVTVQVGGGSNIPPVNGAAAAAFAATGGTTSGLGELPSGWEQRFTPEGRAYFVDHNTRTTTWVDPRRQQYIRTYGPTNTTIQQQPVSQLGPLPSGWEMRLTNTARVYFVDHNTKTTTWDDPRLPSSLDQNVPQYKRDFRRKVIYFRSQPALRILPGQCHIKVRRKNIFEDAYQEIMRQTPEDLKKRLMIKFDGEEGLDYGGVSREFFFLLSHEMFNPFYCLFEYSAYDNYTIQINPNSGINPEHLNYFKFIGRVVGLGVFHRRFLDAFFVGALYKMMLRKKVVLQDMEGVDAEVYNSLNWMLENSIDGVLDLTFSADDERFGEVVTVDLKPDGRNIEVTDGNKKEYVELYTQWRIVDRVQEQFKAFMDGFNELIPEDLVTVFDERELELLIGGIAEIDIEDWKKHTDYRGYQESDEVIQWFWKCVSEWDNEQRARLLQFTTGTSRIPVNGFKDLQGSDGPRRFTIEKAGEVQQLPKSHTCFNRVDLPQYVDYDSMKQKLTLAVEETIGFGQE", "settings": "pers. comm.; cited from earlier work"}, "Aβ peptide": {"system": "Aβ peptide", "assay": "Yeast growth rescue, Aβ peptide proteinopathy model", "format": "cell-based", "protocol": "(A) Structure of lead compound ABI. (B) Dose-response curves showing the relative rescue of ABI (log2, μM) in five yeast proteinopathy models. Rescue is relative to a positive control compound as determined by growth (OD600). (C) Localization of α-syn-GFP in strains with increasing toxicity: NoTox, InTox, HiTox and HiTox treated with 10 μM ABI. […] (E) (Left panel) Western blot of α-syn-GFP in NoTox, InTox, and HiTox strains with anti-α-syn antibody. (Right panel) Quantitation of western blot (α-syn relative to total protein quantitated from a Coomassie gel and normalized to 100% for HiTo). **: P<0.01; and ***: P<0.001, according to one-way ANOVA and a Tukey's test.\nYeast strains expressing toxic proteins have been described previously (6, 9, 33, 34) (Table 1). All strains have either single or multiple inserts for galactose-inducible expression. In addition, all stains have either deletions of the Δpdr1::KanMX and Δpdr3::KanMX or Δpdr5::KanMX to reduce efflux of compounds and required compound dosing. Yeast were cultured in complete synthetic media (CSM) and an appropriate dropout (minus HIS or URA) to maintain plasmids if required. […]\nStarting cultures for all dose-response assays were established as described above. […] Plates were then read with a Tecan Saphire plate reader at OD600."}, "TDP-43": {"system": "TDP-43", "assay": "Yeast growth rescue screen, cells expressing TDP-43", "format": "cell-based", "settings": "yeast expressing TDP-43", "description": "Thus, rescue was not targeted to a common feature of misfolded protein toxicity, but rather reflected the ability of ABI to target specific pathologies related to α-syn (and to a lesser degree TDP-43).\nYeast strains expressing toxic proteins have been described previously (6, 9, 33, 34) (Table 1). All strains have either single or multiple inserts for galactose-inducible expression. In addition, all stains have either deletions of the Δpdr1::KanMX and Δpdr3::KanMX or Δpdr5::KanMX to reduce efflux of compounds and required compound dosing. Yeast were cultured in complete synthetic media (CSM) and an appropriate dropout (minus HIS or URA) to maintain plasmids if required. For galactose-induction experiments, overnight cultures were grown in CSM/2% glucose to saturation and diluted 1:20 into CSM/2% raffinose for ˜2 generations. Cultures were then diluted into CSM/2% galactose at an optimum OD600 for the experiment (see ‘Growth assays’).\nStarting cultures for all dose-response assays were established as described above. All growth assays were carried out in 384 well-format. Source plates were assembled in 96 well plates using multichannel pipettes to dilute rows in 1.6-fold serial dilutions of CSMGal. […] Plates were then read with a Tecan Saphire plate reader at OD600. […]"}}, "note": "Entries after “also recorded” stand apart in the source; their conditions may differ."}
{"smiles": "Cc1cccc(-n2cnc3cc(C(=O)NCc4ccccc4Cl)ccc32)c1", "note": "[ABI, N-(2-chlorobenzyl)-1-(m-tolyl)-1H-benzo[d]imidazole-5-carboxamide]", "values": [{"measurement": "viability of cells", "setting": "WT yeast [1]", "result": "retained full viability"}, {"measurement": "rescue of DA neurons from α-syn toxicity", "setting": "[2]", "result": "partial, yet highly significant, rescue"}, {"measurement": "Bap2 levels / degradation", "setting": "Bap2", "result": "promotes Bap2 degradation"}, {"measurement": "generation of reactive oxygen species (% of ROS-positive cells)", "setting": "reactive oxygen species", "result": "completely abolished; also recorded: reduced the % of ROS-positive cells"}, {"measurement": "growth inhibition of wild-type cells", "setting": "WT yeast [3]", "result": "inhibited the growth of wild-type cells"}, {"measurement": "ER-to-Golgi trafficking (Cpy) / forward protein trafficking through the ER", "setting": "Cpy", "result": "directly ameliorated an ER-Golgi trafficking block"}, {"measurement": "ubiquitination of recombinant Rsp5p in vitro", "setting": "Rsp5p", "result": "did not enhance ubiquitination"}, {"measurement": "efficacy against Aβ peptide", "setting": "Aβ peptide", "result": "not, however, effective"}, {"measurement": "efficacy against TDP-43 (restoration of growth)", "setting": "TDP-43", "result": "modest efficacy"}]}
